From patent publication US10441562B2, “Aromatic farnesyl compound and application thereof” (INSTITUTE OF MICROBIOLOGY, CHINESE ACADEMY OF SCIENCES, priority 2015, dated 2019)

Biological target: T1, HMG-CoA reductase (Homo sapiens, UniProt P04035)
T1 sequence (P04035 426-888 limits assumed): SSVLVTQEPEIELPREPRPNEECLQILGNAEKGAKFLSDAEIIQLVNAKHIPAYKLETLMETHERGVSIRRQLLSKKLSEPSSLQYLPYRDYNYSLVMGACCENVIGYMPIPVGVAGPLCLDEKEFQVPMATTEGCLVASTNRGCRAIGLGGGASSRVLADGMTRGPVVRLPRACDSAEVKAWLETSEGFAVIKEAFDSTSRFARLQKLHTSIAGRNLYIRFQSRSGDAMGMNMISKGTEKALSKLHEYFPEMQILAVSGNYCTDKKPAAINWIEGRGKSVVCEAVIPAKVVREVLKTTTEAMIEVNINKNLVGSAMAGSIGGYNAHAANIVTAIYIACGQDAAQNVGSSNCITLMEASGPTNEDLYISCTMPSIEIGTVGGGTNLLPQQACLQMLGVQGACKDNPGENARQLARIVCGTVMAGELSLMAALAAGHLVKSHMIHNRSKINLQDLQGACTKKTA
Assay: HMG-CoA reductase inhibitory activity test in vitro
Format: biochemical

Row | Compound | IC50 [µM]
1 | CC(C)=CCC/C(C)=C/CCC1=C[C@@H](c2cc(O)ccc2O)OC1=O [S28, (S,E)-5-(2,5-dihydroxyphenyl)-3-(4,8-dimethylnona-3,7-dien-1-yl)furan-2(5H)-one] | 8.9
2 | CC(C)=CCC/C(C)=C/CCC1=C[C@H](c2cc(O)ccc2O)OC1=O [S13, (R,E)-5-(2,5-dihydroxyphenyl)-3-(4,8-dimethylnona-3,7-dien-1-yl)furan-2(5H)-one] | 7.9
